Results reported in PMC3454389, “Mining the Sinorhizobium meliloti Transportome to Develop FRET Biosensors for Sugars, Dicarboxylates and Cyclic Polyols” (PLoS ONE, 2012).

Assays:
SMb20712-CY = target: T1, SMb20712-CY (Sinorhizobium meliloti, UniProt Q926E6); experiment: FRET biosensor SMb20712-CY, in vitro ligand titration; assay type: binding
T1 sequence (Q926E6 21-309): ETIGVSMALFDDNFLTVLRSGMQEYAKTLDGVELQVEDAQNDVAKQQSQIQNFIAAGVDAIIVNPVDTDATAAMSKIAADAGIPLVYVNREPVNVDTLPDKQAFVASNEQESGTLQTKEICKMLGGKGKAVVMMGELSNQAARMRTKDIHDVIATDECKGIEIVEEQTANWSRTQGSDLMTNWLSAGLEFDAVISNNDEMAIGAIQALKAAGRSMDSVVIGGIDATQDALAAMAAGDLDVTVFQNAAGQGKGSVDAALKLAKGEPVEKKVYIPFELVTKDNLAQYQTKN
Description: (§1) Ligand-induced FRET ratio changes of purified FRET biosensor were screened using a LS55 luminescence spectrometer (PerkinElmer Instruments). Excitation (ex.) was at (λ/slit width) 433/10 nm (CFP) or 549/10 nm (OFP). Emission (em.) was measured at 475/10 nm (CFP), 527/10 nm (YFP), 573/10 nm (OFP) and 644/10 nm (RFP). To confirm that Aphrodite and mKate2 were properly folded their fluorescence was individually tested by direct excitation at 510/6 nm and 588/10 nm respectively.
(§2) Affinity constants (Kd) of FRET biosensors with specific ligands were established using a monochromator microplate reader (Safire, Tecan, Switzerland; CFP ex.: (λ\bandwidth) 433/12 nm, em.: 475/12 nm; YFP em.: 527/12 nm. OFP ex.: 533/12 nm, em.: 563/12 nm; RFP em.: 615/12 nm). Proteins were diluted to give relative fluorescence units (RFU) in the detection range of 30,000 to 50,000 RFU at a gain of 90 to 100, and then were added to a dilution series (10^−3 to 10^−11 M) of ligand in Tris-HCl (pH 8.5, 50 mM). The change in relative emission intensities at 527/477 nm (YFP/CFP) or 615/563 nm (RFP/OFP) was used to determine Kd by fitting the titration curves to a single-site-binding isotherm: [drawing 1] with: R, ratio; Rapo, ratio without ligand; Rsat, ratio at saturation of ligand; n, number of equal binding sites; [L], ligand concentration. Non-linear regression was used to fit the curves using SigmaPlot 11 (Systat Software Inc.) (Hill equation, 4 Parameters, b = 1). All measurements were done in quadruplicate.

SMc02324-CY = SMc02324-CY (Sinorhizobium meliloti, UniProt Q92S11); experiment: FRET biosensor SMc02324-CY, in vitro ligand titration; assay type: binding; settings: SMc02324-CY
SMc02324-CY, sequence (Q92S11 entry or part of it): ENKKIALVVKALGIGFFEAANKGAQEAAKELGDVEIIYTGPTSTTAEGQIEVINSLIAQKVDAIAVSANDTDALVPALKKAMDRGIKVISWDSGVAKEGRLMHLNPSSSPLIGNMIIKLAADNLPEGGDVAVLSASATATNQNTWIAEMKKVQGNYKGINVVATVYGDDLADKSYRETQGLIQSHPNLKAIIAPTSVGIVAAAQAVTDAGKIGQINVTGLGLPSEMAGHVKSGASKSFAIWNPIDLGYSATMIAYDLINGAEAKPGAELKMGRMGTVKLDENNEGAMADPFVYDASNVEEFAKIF
Description: as §1, §2

SMc02774-CY = SMc02774-CY (Sinorhizobium meliloti, UniProt Q92TD7); experiment: FRET biosensor SMc02774-CY, in vitro ligand titration; assay type: binding; settings: SMc02774-CY
SMc02774-CY, sequence (Q92TD7 entry or part of it): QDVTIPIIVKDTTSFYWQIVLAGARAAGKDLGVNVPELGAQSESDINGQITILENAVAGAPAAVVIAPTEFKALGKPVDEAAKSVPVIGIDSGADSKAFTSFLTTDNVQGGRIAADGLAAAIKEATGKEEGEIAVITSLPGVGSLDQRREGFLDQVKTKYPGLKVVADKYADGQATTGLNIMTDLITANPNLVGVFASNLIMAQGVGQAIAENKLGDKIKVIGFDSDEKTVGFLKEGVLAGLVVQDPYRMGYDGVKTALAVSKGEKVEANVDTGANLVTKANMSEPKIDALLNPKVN
Description: as §1, §2

[1] = tested on: genes encoding the ABC-transporter (RL2376-9); settings: cited from earlier work
RL2376-CY = target: T2, RL2376-CY (Rhizobium leguminosarum, UniProt Q1MGQ3); experiment: FRET biosensor RL2376-CY, in vitro ligand titration; assay type: binding
T2 sequence (Q1MGQ3 24-320): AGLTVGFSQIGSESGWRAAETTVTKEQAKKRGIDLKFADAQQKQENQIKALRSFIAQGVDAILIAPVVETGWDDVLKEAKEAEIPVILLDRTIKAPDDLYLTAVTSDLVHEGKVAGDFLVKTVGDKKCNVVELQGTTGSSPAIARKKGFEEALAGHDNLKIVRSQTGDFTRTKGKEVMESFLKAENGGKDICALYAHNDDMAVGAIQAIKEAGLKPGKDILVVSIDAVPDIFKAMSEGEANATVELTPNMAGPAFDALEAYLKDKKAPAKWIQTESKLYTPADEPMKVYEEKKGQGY
Description: as §1, §2

SMc04259-CY = SMc04259-CY (Sinorhizobium meliloti, UniProt Q92P64); experiment: FRET biosensor SMc04259-CY, in vitro ligand titration; assay type: binding; settings: SMc04259-CY
SMc04259-CY, sequence (Q92P64 entry or part of it): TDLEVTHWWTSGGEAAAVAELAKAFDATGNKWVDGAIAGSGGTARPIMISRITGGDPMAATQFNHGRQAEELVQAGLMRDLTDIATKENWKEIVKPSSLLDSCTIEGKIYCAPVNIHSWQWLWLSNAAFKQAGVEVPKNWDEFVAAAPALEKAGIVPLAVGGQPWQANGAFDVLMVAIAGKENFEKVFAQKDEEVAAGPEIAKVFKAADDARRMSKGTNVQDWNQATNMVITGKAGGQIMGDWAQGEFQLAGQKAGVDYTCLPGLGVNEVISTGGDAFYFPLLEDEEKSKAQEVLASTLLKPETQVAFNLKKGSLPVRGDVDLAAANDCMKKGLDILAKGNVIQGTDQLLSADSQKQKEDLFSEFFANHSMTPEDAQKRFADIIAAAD
Description: as §1, §2

rcc03024-RO = target: T3, rcc03024-RO (Rhodobacter capsulatus, UniProt P37735); experiment: rcc03024-RO, FRET ratio change on ligand; assay type: binding
T3 construct: made in house; host or cells: E. coli Rosetta2
T3 sequence (P37735 27-333): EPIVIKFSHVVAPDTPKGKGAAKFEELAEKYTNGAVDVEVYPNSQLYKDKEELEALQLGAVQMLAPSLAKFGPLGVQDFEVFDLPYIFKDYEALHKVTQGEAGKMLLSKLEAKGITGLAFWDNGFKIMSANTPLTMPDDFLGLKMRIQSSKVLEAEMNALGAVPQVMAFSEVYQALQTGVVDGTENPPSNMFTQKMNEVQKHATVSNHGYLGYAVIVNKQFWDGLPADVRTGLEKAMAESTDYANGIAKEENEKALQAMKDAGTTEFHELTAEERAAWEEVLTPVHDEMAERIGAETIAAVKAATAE
Description: as §1
as §2, with “Non-linear regression was used to fit the curves using SigmaPlot 11 (Systat Software Inc.) (Hill equation, 4 Parameters, b = 1). All measurements were done in quadruplicate.” left out

rcc03024-CY (DctP) = target: T4, rcc03024-CY (DctP) (Rhodobacter capsulatus, UniProt P37735); experiment: FRET biosensor rcc03024-CY, in vitro ligand titration; assay type: binding; settings: for Kd: pCYS (pLMB414), Tris-HCl pH 8.5
T4 construct: made in house; host or cells: E. coli Rosetta2
T4 sequence (P37735 27-333): T3 sequence (P37735 27-333)
Excerpt: Ligand-induced FRET ratio changes of purified FRET biosensor were screened using a LS55 luminescence spectrometer (PerkinElmer Instruments).
Non-linear regression was used to fit the curves using SigmaPlot 11 (Systat Software Inc.) (Hill equation, 4 Parameters, b = 1). All measurements were done in quadruplicate.

[2] = target: T5, eCFP-MglB-Aphrodite fusion protein (Escherichia coli, UniProt P0AEE5, F39A); experiment: Validation of pCYS with glucose binding protein MglB FRET fusion; settings: purified eCFP-MglB-Aphrodite from pLMB240 (pCYS)
T5 construct: MglB core from pFLIPglu600µΔ13 - SpeI - BD cloning in pCYS - For; made in house; host or cells: E. coli Rosetta2
T5 sequence (P0AEE5 24-332 F39A limits assumed): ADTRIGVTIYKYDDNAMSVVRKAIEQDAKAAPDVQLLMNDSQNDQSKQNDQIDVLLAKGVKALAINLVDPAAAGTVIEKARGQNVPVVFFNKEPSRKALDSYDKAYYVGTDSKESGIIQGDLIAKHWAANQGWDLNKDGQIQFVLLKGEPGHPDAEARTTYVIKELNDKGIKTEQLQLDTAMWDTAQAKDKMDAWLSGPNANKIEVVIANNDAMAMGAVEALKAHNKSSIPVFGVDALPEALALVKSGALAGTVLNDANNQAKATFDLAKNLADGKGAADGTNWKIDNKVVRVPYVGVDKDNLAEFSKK
Description: The FRET vector pCYS was tested by inserting the glucose binding protein from Escherichia coli (MglB). This SBP was reported to have a FRET Δ ratio ranging from −8% to −28% upon binding of glucose that depended on linker length. The purified eCFP-MglB-Aphrodite fusion protein from pLMB240 (Table S1) gave a FRET Δ ratio of −19%, thus validating this vector and the choice of short linkers (of four and three amino acids) which we had incorporated into its design (Fig. 1B).
as §1

[3] = target: T5, eCFP-MglB-Aphrodite fusion protein; settings: MglB sensors, depended on linker length; cited from earlier work
SMc04259-RO = experiment: SMc04259-RO, FRET ratio change on ligand; assay type: binding, Sinorhizobium meliloti
Description: as §1
as §2, with “Non-linear regression was used to fit the curves using SigmaPlot 11 (Systat Software Inc.) (Hill equation, 4 Parameters, b = 1). All measurements were done in quadruplicate.” left out

SMb20036-CY = SMb20036-CY (Sinorhizobium meliloti, UniProt Q92XC3); experiment: biochemical; assay type: binding; settings: compounds similar in structure to D-quinic acid
SMb20036-CY, sequence (Q92XC3 entry or part of it): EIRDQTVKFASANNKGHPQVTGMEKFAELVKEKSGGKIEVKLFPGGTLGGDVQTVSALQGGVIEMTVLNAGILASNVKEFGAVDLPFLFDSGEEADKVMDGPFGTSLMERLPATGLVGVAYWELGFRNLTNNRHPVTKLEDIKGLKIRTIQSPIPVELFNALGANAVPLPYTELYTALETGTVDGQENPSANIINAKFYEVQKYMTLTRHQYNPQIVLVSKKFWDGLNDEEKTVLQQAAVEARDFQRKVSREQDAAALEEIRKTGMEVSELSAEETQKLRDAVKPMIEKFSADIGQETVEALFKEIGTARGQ
Description: as §1, §2

O[C@H]1[C@H](O)[C@@H](O)[C@H](O)[C@@H](O)[C@H]1O [myo-inositol]
Kd (SMb20712-CY; pCYS (pLMB319), Tris-HCl pH 8.5): 470 nM

OC[C@@H](O)[C@@H](O)CO [erythritol]
reaction of biosensor with compound (FRET) (SMc02324-CY): did not react

C[C@H]1OC(O)[C@H](O)[C@@H](O)[C@H]1O (stereo partly drawn) [D-fucose]
reaction of biosensor with compound (FRET) (SMc02774-CY): did not react
reaction of biosensor with compound (FRET) (SMc02324-CY): did not react

OC1OC[C@@H](O)[C@@H](O)[C@@H]1O (stereo partly drawn) [D-arabinose]
Inducer of gene expression (fold change) ([1]; RL2376, Table 1): D-arabinose (3.6) fold
induction of genes RL2376-9 (fold) ([1]; microarray, compared with cells grown on glucose): up to 3.6 fold
change in FRET ratio on addition of compound (RL2376-CY): no change in FRET ratio

OC[C@H]1O[C@@H](O[C@@H]2[C@@H](CO)OC(O)(CO)[C@H]2O)[C@H](O)[C@@H](O)[C@H]1O (mixture of isomers) [lactulose]
change in FRET with compound (SMc04259-CY): no change in FRET

O=C(O)CCC(=O)O [succinate]
change in FRET ratio on binding ligand (rcc03024-RO): no change in FRET ratio
ΔFRET on saturation (%) (rcc03024-CY (DctP); change in FRET ratio on ligand binding): −2.7±0.2%
Kd (rcc03024-CY (DctP)): 36 nM

CC(=O)C(=O)O [pyruvate]
change in FRET ratio on addition of compound (rcc03024-CY (DctP)): no change in FRET ratio
reaction of biosensor with compound (FRET) (SMc02774-CY): did not react

OC[C@H]1OC(O)[C@H](O)[C@@H](O)[C@@H]1O (stereo partly shown) [glucose]
FRET Δ ratio [2]: −19%
change in FRET with compound (SMc04259-CY): no change in FRET
FRET Δ ratio upon binding of glucose [3]: −8% to −28%
change in FRET ratio on addition of compound (RL2376-CY): no change in FRET ratio

OC[C@@H](O)[C@H](O)[C@H](O)[C@@H](O)CO [dulcitol]
reaction of biosensor with compound (FRET) (SMc02324-CY): did not react

O=P(O)(O)O[C@@H]1[C@H](O)[C@H](O)[C@@H](OP(=O)(O)O)[C@H](OP(=O)(O)O)[C@H]1O [inositol 1,4,5-trisphosphate]
reaction of biosensor with compound (FRET) (SMb20712-CY): did not react

gentiobiose
change in FRET ratio on binding ligand (SMc04259-RO): no change in FRET ratio

OC[C@@H](O)[C@@H]1OC(O)[C@H](O)[C@H]1O (stereo partly drawn) [D-galactofuranose]
Kd (RL2376-CY; hypothetical solution of pure D-galactofuranose, furanoses 7.7% of D-galactose in solution, read-out: estimated Kd for D-galactofuranose specifically): 408 ± 131 nM

O=C(O)CC(=O)C(=O)O [oxaloacetate]
Kd (rcc03024-CY (DctP)): 16000 nM

O=C(O)c1ccccc1 [benzoic acid]
change in FRET ratio on addition of compound (SMb20036-CY): no change in FRET ratio

O=C(CO)[C@@H](O)[C@@H](O)[C@H](O)CO [tagatose]
reaction of biosensor with compound (FRET) (SMc02324-CY): did not react

O=P(O)(O)O[C@H]1[C@H](OP(=O)(O)O)[C@@H](OP(=O)(O)O)[C@H](OP(=O)(O)O)[C@@H](OP(=O)(O)O)[C@H]1OP(=O)(O)O [phytic acid]
reaction of biosensor with compound (FRET) (SMb20712-CY): did not react
